Results: ChEMBL document CHEMBL1201862, “PubChem BioAssay data set” (2004)
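Growth conditions: 96-well plates. Treatment: test compound, 48 hours, 5 concentrations. Analysis: linear interpolation between bracketing concentrations; unreached endpoints set to highest concentration. At the GI50, growth is halved.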 Active and inactive are the calls of the source. No stated cut-off is given here; in the data, active = GI50 up to about 1.1 µM and inactive = higher.

Experiments:
Assay in all cases: NCI-60 cell line screen, 48 h
A498 = system: A498
A549 = system: A549
ACHN = system: ACHN
HCC 2998 = system: HCC 2998
HCT-15 = system: HCT-15
HL-60 = system: HL-60
M14 = system: M14
MOLT-4 = system: MOLT-4
Malme-3M = system: Malme-3M
OVCAR-4 = system: OVCAR-4
OVCAR-8 = system: OVCAR-8
SNB-19 = system: SNB-19
SNB-75 = system: SNB-75
SR = system: SR
UACC-257 = system: UACC-257
COLO 205 = system: COLO 205
U-251 = system: U-251
DU-145 = system: DU-145
NCI-H522 = system: NCI-H522

Structure (SMILES)	GI50 (A498)	GI50 (A549)	GI50 (ACHN)	GI50 (HCC 2998)	GI50 (HCT-15)	GI50 (HL-60)	GI50 (M14)	GI50 (MOLT-4)	GI50 (Malme-3M)	GI50 (OVCAR-4)	GI50 (OVCAR-8)	GI50 (SNB-19)	GI50 (SNB-75)	GI50 (SR)	GI50 (UACC-257)	GI50 (COLO 205)	GI50 (U-251)	GI50 (DU-145)	GI50 (NCI-H522)
CC1=C(C(=O)NCc2ccccc2)C(/C=C/c2ccccc2)C(C(=O)NCc2ccccc2)=C(C)N1	> 100 µM (inactive)	> 100 µM (inactive)	> 100 µM (inactive)	> 100 µM (inactive)	> 100 µM	> 100 µM (inactive)	> 100 µM (inactive)	> 100 µM (inactive)	> 100 µM (inactive)	> 100 µM (inactive)	> 100 µM (inactive)	> 100 µM (inactive)	85.9 µM (inactive)	> 100 µM (inactive)	> 100 µM (inactive)	–	–	–	–
COc1c(I)c(OC)c2c(c1I)O[C@@H]1OCC[C@H]21	28.4 µM (inactive)	34 µM (inactive)	17.3 µM (inactive)	30.5 µM (inactive)	35.6 µM	17.3 µM (inactive)	24.9 µM (inactive)	20 µM (inactive)	34 µM (inactive)	23.6 µM (inactive)	33 µM (inactive)	77.1 µM (inactive)	27.2 µM (inactive)	15.7 µM (inactive)	26.1 µM (inactive)	20 µM (inactive)	37.6 µM (inactive)	–	–
O=C1CSC(=O)/C1=C\NNc1nc2ccccc2o1	25.5 µM (inactive)	27.7 µM (inactive)	32.6 µM (inactive)	54.1 µM (inactive)	12 µM	0.586 µM (active)	19.3 µM (inactive)	21 µM (inactive)	31.5 µM (inactive)	38.3 µM (inactive)	13.6 µM (inactive)	19.6 µM (inactive)	–	24.5 µM (inactive)	29.7 µM (inactive)	27 µM (inactive)	–	47.5 µM (inactive)	–
Cc1cccc(C)c1NC(=O)C(=O)Nn1c(NN)nc2ccccc2c1=O	> 100 µM (inactive)	> 100 µM (inactive)	> 100 µM (inactive)	> 100 µM (inactive)	> 100 µM	> 100 µM (inactive)	> 100 µM (inactive)	> 100 µM (inactive)	> 100 µM (inactive)	> 100 µM (inactive)	> 100 µM (inactive)	> 100 µM (inactive)	> 100 µM (inactive)	> 100 µM (inactive)	> 100 µM (inactive)	> 100 µM (inactive)	> 100 µM (inactive)	–	> 100 µM (inactive)
